Assay results taken from patent publication US20060003950A1, “Method of treating prostatic diseases using a combination of vitamin D analogues and other agents” (priority 2004, published 2006).
Blank lines part the entries; values can stand above or below the compound they belong to.

Legend:
[1] = target: T1, vitamin D receptor (VDR) (Homo sapiens, UniProt P11473); experiment: Vitamin D-inducible growth hormone reporter production in transfected COS-1 cells
T1 sequence (P11473 1-427): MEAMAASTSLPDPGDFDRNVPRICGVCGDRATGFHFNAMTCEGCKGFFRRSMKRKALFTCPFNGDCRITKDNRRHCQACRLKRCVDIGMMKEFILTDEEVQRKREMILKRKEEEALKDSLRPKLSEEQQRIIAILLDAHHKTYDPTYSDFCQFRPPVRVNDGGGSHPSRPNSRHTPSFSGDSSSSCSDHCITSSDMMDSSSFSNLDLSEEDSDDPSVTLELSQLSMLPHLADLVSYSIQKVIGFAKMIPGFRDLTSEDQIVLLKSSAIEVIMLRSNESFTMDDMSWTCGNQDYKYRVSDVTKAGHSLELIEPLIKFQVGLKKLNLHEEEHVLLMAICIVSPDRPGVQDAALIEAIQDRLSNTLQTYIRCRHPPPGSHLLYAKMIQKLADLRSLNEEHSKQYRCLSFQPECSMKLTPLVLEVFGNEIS
Description: Cells in culture were co-transfected into Green monkey kidney, COS-1 cells with these two plasmids. One plasmid contained the gene for Growth Hormone (GH) under the control of the vitamin D responsive element (VDRE) and the other plasmid contained the structural gene for the vitamin D receptor (VDR). These transfected cultures were incubated with 1α,24-(OH)2D2 or 1α,25-(OH)2D3, and the production of growth hormone was measured.

[2] = tested on: PC-3; experiment: Inhibition of prostate cell proliferation (DNA amount), PC-3; type: cell-based, human; settings: PC-3, 10^−11 M to 10^−7 M, 6-7 days
Description: (§1) The cell lines, LNCaP and PC-3, which are derived from human prostate adenocarcinoma, are seeded in six-well tissue culture plates at a density of about 50,000 cells/plate. After the cells have attached and stabilized, about 2-3 days, the medium is replenished with medium containing vehicle or the active vitamin D analogue 1α,24-(OH)2D2, at concentrations from 10^−11 M to 10^−7 M. Medium containing test analogue or vehicle is replaced every three days. After 6-7 days, the medium is removed, the cells are rinsed, precipitated with cold 5% trichloroacetic acid, and washed with cold ethanol. The cells are solubilized with 0.2 N sodium hydroxide, and the amount of DNA determined by standard procedures.

[3] = tested on: LNCaP; experiment: Stimulation of prostate cell differentiation (PSA), LNCaP; type: cell-based, human; settings: 10^−11 M to 10^−7 M, 6-7 days
Description: Using the techniques of Skowronski et al., 132 Endocrinology (1993) 1952-1960 and 136 Endocrinology (1995) 20-26, both of which are incorporated herein by reference, cells of the cell line, LNCaP, which is derived from a human metastatic prostate adenocarcinoma and known to express PSA, are seeded in six-well tissue culture plates at a density of about 50,000 cells/plate. After the cells have attached and stabilized, about 2-3 days, the medium is replenished with medium containing vehicle or the active vitamin D analogue, 1α,24-(OH)2D2, at concentrations from 10^−11 M to 10^−7 M. After 6-7 days, the medium is removed and stored at −20° C. for prostate specific antigen (PSA) analysis.
The cells from parallel cultures are rinsed, precipitated, and the amount of DNA determined by standard procedures. PSA is measured by standard known methods.

[4] = target: T2, prostate VDR (Homo sapiens, UniProt P11473); experiment: VDR binding in soluble extract of prostate-derived cell lines, competition with 3H-1α,25-(OH)2D3; settings: 0.01-100 nM against 1 nM 3H-1α,25-(OH)2D3, 16-20 hr at 4° C.
T2 construct: endogenous in cells
T2 sequence (P11473 1-427): T1 sequence (P11473 1-427)
Description: Prostate-derived cell lines are cultured to near confluence, washed and harvested by scraping. Cells are washed by centrifugation, and the cell pellet resuspended in a buffered salt solution containing protease inhibitors. The cells are disrupted by sonication while cooling on ice. The supernatant obtained from centrifuging the disrupted cells at 207,000×g for 35 min at 4° C. is assayed for binding. […] Bound and free hormones are separated with hydroxylapatite using standard procedures. Specific binding is calculated by subtracting nonspecific binding obtained in the presence of a 250-fold excess of nonradioactive 1α,25-(OH)2D3 from the total binding measured.

[5] = tested on: LNCaP; experiment: Inhibition of prostate cell proliferation (DNA amount), LNCaP; type: cell-based, human; settings: 10^−11 M to 10^−7 M, 6-7 days
Description: as §1

[6] = tested on: Patients with advanced androgen-independent prostate cancer; experiment: Open-labeled clinical study of oral 1α,24-(OH)2D2; type: in vivo; settings: daily oral, first phase
Text: On admission to the study, patients begin a course of therapy with oral 1α,24-(OH)2D2 lasting 26 weeks, while discontinuing any previous use of calcium supplements, vitamin D supplements, and vitamin D hormone replacement therapies. During treatment, the patients are monitored at regular intervals for: (1) hypercalcemia, hyperphosphatemia, hypercalciuria, hyperphosphaturia and other toxicity; (2) evidence of changes in the progression of metastatic disease; and (3) compliance with the prescribed test drug dosage.
The study is conducted in two phases. During the first phase, the maximal tolerated dosage (MTD) of daily oral 1α,24-(OH)2D2 is determined by administering progressively higher dosages to successive groups of patients. All doses are administered in the morning before breakfast. […] Subsequent groups of patients are treated with 50.0, 75.0 and 100.0 μg/day.
During the second phase, patients are treated with 1α,24-(OH)2D2 for 24 months at 0.5 and 1.0 times the MTD.

Total GH Production* ([1]; Molar Concentration 1 × 10^−7): 1300 ng/mL | Total GH Production* ([1]; Molar Concentration 1 × 10^−8): 1100 ng/mL | Total GH Production* ([1]; Molar Concentration 1 × 10^−9): 80 ng/mL
Compound: C=C1/C(=C\C=C2/CCC[C@]3(C)[C@@H]([C@H](C)/C=C/[C@](C)(O)C(C)C)CC[C@@H]23)C[C@@H](O)C[C@@H]1O [1α,24(R)—(OH)2D2, 1α,24(R)-dihydroxy-vitamin D2]

Total GH Production* ([1]; Molar Concentration 5 × 10^−8): 1182 ng/mL | Total GH Production* ([1]; Molar Concentration 5 × 10^−9): 1350 ng/mL | Total GH Production* ([1]; Molar Concentration 5 × 10^−10): 425 ng/mL
Compound: C=C1/C(=C\C=C2/CCC[C@]3(C)[C@@H]([C@H](C)/C=C/[C@@](C)(O)C(C)C)CC[C@@H]23)C[C@@H](O)C[C@@H]1O [1α,24(S)—(OH)2D2, 1α,24(S)-dihydroxyvitamin D2]

Compound: C=C1/C(=C\C=C2/CCC[C@]3(C)[C@@H]([C@H](C)/C=C/C(C)(O)C(C)C)CC[C@@H]23)C[C@H](O)C[C@H]1O (stereo partly drawn) [1α,24-(OH)2D2, 1α,24-dihydroxyvitamin D2]
cell number versus control cultures [2]: significantly fewer cells than the control cultures | PSA versus control cultures, mass of PSA/cell [3]: significantly more PSA than control cultures | affinity for prostate VDR [4]: strong affinity | cell number versus control cultures [5]: significantly fewer cells than the control cultures | MTD relative to level achievable with 1α,25-(OH)2D3 [6]: 10- to 40 fold | maximal tolerated dosage (MTD) [6]: above 20.0 μg/day

Compound: C=C1CC[C@H](O)C/C1=C/C=C1\CCC[C@]2(C)[C@@H]([C@H](C)CCCC(C)(C)O)CC[C@@H]12 [25-OH-D3, reference compound]
Total GH Production* ([1]; Molar Concentration 1 × 10^−5): 775 ng/mL | Total GH Production* ([1]; Molar Concentration 1 × 10^−6): 1100 ng/mL | Total GH Production* ([1]; Molar Concentration 1 × 10^−7): 245 ng/mL
